Reference: patent publication US20230250066A1, “HERBICIDAL CINNOLINE DERIVATIVES” (SYNGENTA CROP PROTECTION AG, priority 2020, published 2023)

What was measured:
Type in all cases: in vivo
[1] = system: Amaranthus retoflexus (AMARE); experiment: Pre-emergence herbicidal test; conditions: 1000 g/ha, evaluated after 13 days
Setaria faberi (SETFA) [2] = experiment: Pre-emergence herbicidal test; conditions: 1000 g/ha, evaluated after 13 days
[3] = system: Echinochloa crus-galli (ECHCG); experiment: Pre-emergence herbicidal test; conditions: 1000 g/ha, evaluated after 13 days
[4] = system: Ipomoea hederacea (IPOHE); experiment: Pre-emergence herbicidal test; conditions: 1000 g/ha, evaluated after 13 days
[5] = system: Abutilon theophrasti (ABUTH); experiment: Pre-emergence herbicidal test; conditions: 1000 g/ha, evaluated after 13 days
Zea mays (ZEAMX) [6] = experiment: Pre-emergence herbicidal test; conditions: 1000 g/ha, evaluated after 13 days
[7] = system: Abutilon theophrasti (ABUTH); experiment: Post-emergence herbicidal test; conditions: 1000 g/ha unless otherwise stated, evaluated after 13 days
Summary of the method: (§1)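 Spray-applied at 1000 g/ha unless stated, in the glasshouse. Damage rated 13 days later on a 0–5 scale.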

[8] = system: Amaranthus retoflexus (AMARE); experiment: Post-emergence herbicidal test; conditions: 1000 g/ha unless otherwise stated, evaluated after 13 days
Summary of the method: as §1

[9] = system: Echinochloa crus-galli (ECHCG); experiment: Post-emergence herbicidal test; conditions: 1000 g/ha unless otherwise stated, evaluated after 13 days
Summary of the method: as §1

[10] = system: Ipomoea hederacea (IPOHE); experiment: Post-emergence herbicidal test; conditions: 1000 g/ha unless otherwise stated, evaluated after 13 days
Summary of the method: as §1

Setaria faberi (SETFA) [11] = experiment: Post-emergence herbicidal test; conditions: 1000 g/ha unless otherwise stated, evaluated after 13 days
Summary of the method: as §1

Zea mays (ZEAMX) [12] = experiment: Post-emergence herbicidal test; conditions: 1000 g/ha unless otherwise stated, evaluated after 13 days
Summary of the method: as §1

SMILES	percentage damage caused to the plant, five-point scale, AMARE [1]	percentage damage caused to the plant, five-point scale, SETFA (Setaria faberi (SETFA) [2])	percentage damage caused to the plant, five-point scale, ECHCG [3]	percentage damage caused to the plant, five-point scale, IPOHE [4]	percentage damage caused to the plant, five-point scale, ABUTH [5]	percentage damage caused to the plant, five-point scale, ZEAMX (Zea mays (ZEAMX) [6])	percentage damage caused to the plant, ABUTH (five-point scale) [7]	percentage damage caused to the plant, AMARE (five-point scale) [8]	percentage damage caused to the plant, ECHCG (five-point scale) [9]	percentage damage caused to the plant, IPOHE (five-point scale) [10]	percentage damage caused to the plant, SETFA (five-point scale) (Setaria faberi (SETFA) [11])	percentage damage caused to the plant, ZEAMX (five-point scale) (Zea mays (ZEAMX) [12])
CC(C)OC(=O)c1nn(-c2ccc(OC(F)(F)F)cc2)c2cccc(S(C)(=O)=O)c2c1=O [Compound P65, isopropyl 5-methylsulfonyl-4-oxo-1-[4-(trifluoromethoxy)phenyl]cinnoline-3-carboxylate]	1 (1=10-20%)	4 (4=61-80%)	4 (4=61-80%)	0 (0=0%)	1 (1=10-20%)	0 (0=0%)	1 (1=10-20%)	1 (1=10-20%)	3 (3=41-60%)	0 (0=0%)	4 (4=61-80%)	0 (0=0%)
C=C(Cl)COC(=O)c1nn(-c2ccc(OC(F)(F)F)cc2)c2cccc(S(C)(=O)=O)c2c1=O [Compound P66, 2-chloroallyl 5-methylsulfonyl-4-oxo-1-[4-(trifluoromethoxy)phenyl]cinnoline-3-carboxylate]	0 (0=0%)	5 (5=81-100%)	4 (4=61-80%)	1 (1=10-20%)	0 (0=0%)	1 (1=10-20%)	1 (1=10-20%)	0 (0=0%)	4 (4=61-80%)	0 (0=0%)	4 (4=61-80%)	1 (1=10-20%)
CS(=O)(=O)c1cccc2c1c(=O)c(C(=O)OCC(F)F)nn2-c1ccc(OC(F)(F)F)cc1 [Compound P67, 2,2-difluoroethyl 5-methylsulfonyl-4-oxo-1-[4-(trifluoromethoxy)phenyl]cinnoline-3-carboxylate]	0 (0=0%)	5 (5=81-100%)	4 (4=61-80%)	0 (0=0%)	0 (0=0%)	2 (2=21-40%)	1 (1=10-20%)	1 (1=10-20%)	3 (3=41-60%)	1 (1=10-20%)	4 (4=61-80%)	1 (1=10-20%)
CC(C)(C)COC(=O)c1nn(-c2ccc(OC(F)(F)F)cc2)c2cccc(S(C)(=O)=O)c2c1=O [Compound P68, 2,2-dimethylpropyl 5-methylsulfonyl-4-oxo-1-[4-(trifluoromethoxy)phenyl]cinnoline-3-carboxylate]	0 (0=0%)	4 (4=61-80%)	4 (4=61-80%)	0 (0=0%)	0 (0=0%)	0 (0=0%)	0 (0=0%)	0 (0=0%)	3 (3=41-60%)	0 (0=0%)	3 (3=41-60%)	1 (1=10-20%)
COCCCOC(=O)c1nn(-c2ccc(OC(F)(F)F)cc2)c2cccc(S(C)(=O)=O)c2c1=O [Compound P69, 3-methoxypropyl 5-methylsulfonyl-4-oxo-1-[4-(trifluoromethoxy)phenyl]cinnoline-3-carboxylate]	0 (0=0%)	4 (4=61-80%)	4 (4=61-80%)	0 (0=0%)	0 (0=0%)	0 (0=0%)	1 (1=10-20%)	0 (0=0%)	3 (3=41-60%)	1 (1=10-20%)	4 (4=61-80%)	2 (2=21-40%)
CS(=O)(=O)c1cccc2c1c(=O)c(C(=O)OC1CCOC1)nn2-c1ccc(OC(F)(F)F)cc1 (stereo not drawn) [Compound P70, tetrahydrofuran-3-yl 5-methylsulfonyl-4-oxo-1-[4-(trifluoromethoxy)phenyl]cinnoline-3-carboxylate]	0 (0=0%)	4 (4=61-80%)	3 (3=41-60%)	0 (0=0%)	0 (0=0%)	1 (1=10-20%)	1 (1=10-20%)	0 (0=0%)	3 (3=41-60%)	0 (0=0%)	4 (4=61-80%)	0 (0=0%)
C#CCCOC(=O)c1nn(-c2ccc(OC(F)(F)F)cc2)c2cccc(S(C)(=O)=O)c2c1=O [Compound P71, but-3-ynyl 5-methylsulfonyl-4-oxo-1-[4-(trifluoromethoxy)phenyl]cinnoline-3-carboxylate]	0 (0=0%)	5 (5=81-100%)	4 (4=61-80%)	0 (0=0%)	0 (0=0%)	0 (0=0%)	0 (0=0%)	0 (0=0%)	3 (3=41-60%)	1 (1=10-20%)	3 (3=41-60%)	1 (1=10-20%)
CC(C)COC(=O)c1nn(-c2ccc(OC(F)(F)F)cc2)c2cccc(S(C)(=O)=O)c2c1=O [Compound P72, isobutyl 5-methylsulfonyl-4-oxo-1-[4-(trifluoromethoxy)phenyl]cinnoline-3-carboxylate]	0 (0=0%)	4 (4=61-80%)	4 (4=61-80%)	0 (0=0%)	0 (0=0%)	0 (0=0%)	0 (0=0%)	0 (0=0%)	3 (3=41-60%)	1 (1=10-20%)	4 (4=61-80%)	1 (1=10-20%)
CS(=O)(=O)c1cccc2c1c(=O)c(C(=O)OCCC#N)nn2-c1ccc(OC(F)(F)F)cc1 [Compound P73, 2-cyanoethyl 5-methylsulfonyl-4-oxo-1-[4-(trifluoromethoxy)phenyl]cinnoline-3-carboxylate]	0 (0=0%)	5 (5=81-100%)	3 (3=41-60%)	0 (0=0%)	0 (0=0%)	0 (0=0%)	0 (0=0%)	0 (0=0%)	3 (3=41-60%)	1 (1=10-20%)	4 (4=61-80%)	1 (1=10-20%)
